In patent US4315018A, “Specific parasiticidal use of 2-benzamido-5-nitro-thiazole derivatives” (priority 1978, dated 1982):
Entries after “also recorded” stand apart in the source; their conditions may differ.

Legend:
Taenia pisiformis = assay: Treatment of Taenia pisiformis in dogs (experimental infection, single oral dose); format: in vivo, dogs (beagles)
Experimental: Fifteen beagles (8 male and 7 female), ranging in age from 8 to 30 months, were individually housed in stainless-steel cages and fed with commercial dog food. Water was provided ad libitum. After 2 weeks acclimatization, each dog was exposed to infection by administering orally 14-20 cysts containing Taenia pisiformis strobilocerci obtained 24 hours before from wild rabbits. Vitality of the cysts was verified by evagination in bile of the dog.
Seven dogs (Group 1) were given the drug 6 weeks after infection with Taenia pisiformis, and the other 8 dogs (Group 2) were given the drug 8 weeks after infection.
(§1) Food and water intake, faecel consistency, vomiting, general appearance and behavior were recorded hourly during the day of treatment and twice daily thereafter.
The tapeworms that were found were then removed, counted and examined for scolices.
The emission time of the faeces for each dog was recorded during the day, when possible.
Nineteen days after treatment for Group 1, and 4 days after treatment for Group 2, the dogs were killed and the small intestines were examined in order to reveal the presence of Taenia spp. This 19-day waiting period for Group 1 allowed time for any viable scolices to redevelop, thus making them more easily visible at necropsy.
The intestines and intestinal contents from the pyloric portion of the stomach through the rectum were thoroughly examined for parasites.

Dypilidium caninum = assay: Treatment of Dypilidium caninum in dogs (natural infection); format: in vivo; conditions: 100 mg/kg, tablets containing 0.5 gram, necropsy 21 days after treatment
Description: In general, the testing procedure was substantially the same as in Example 1 except necropsy 21 days after treatment. The treatment was 100% effective.

Echinococus granulosus = assay: Treatment of Echinococus granulosus in dogs (experimental infection); format: in vivo; conditions: 200 mg/kg, 0.5 gram tablets, treated 4 or 6 weeks after infection, necropsy 4 days after treatment
Experimental: Again, the general testing procedure was that of Example 1. This time 16 dogs to be treated were experimentally infected and divided into two groups along with 4 infected control dogs in each group. The 8 dogs of Group 1 were treated 4 weeks after infection, and the 8 dogs of Group 2 were treated 6 weeks after infection, each at a dose of 200 mg/kg, using the 0.5 gram active ingredient tablets. 100% efficacy of the single dose treatment was found upon necropsy 4 days after treatment.

Moniezia spp. = assay: Treatment of Moniezia expansa in lambs (natural infestation); format: in vivo
Experimental: (§2) Twenty lambs spontaneously infested by nematodes and cestodes were removed from a flock near Limoges (Haute-Vienne), France. They were housed in sheepfold --concentrate food, 1 kg per day per lamb, water and hay, ad libitum, were provided.
(§3) The animals were assigned to treatment groups as indicated below:
(§4) Seven lambs (Group 1, black) were given a single 100 mg/kg of body weight dose of the test material dissolved in a mixture of water and gum syrup (0.5 ml/kg of body weight) orally administered with a syringe.
(§5) Seven lambs (Group 2, red) were given a single 50 mg/kg of body weight dose of the test material dissolved in a mixture of water and gum syrup (0.5 ml/kg of body weight) orally administered with a syringe.
(§6) Six lambs (Group 3, blue) were given 0.5 ml/kg of body weight of a mixture of water and gum syrup orally administered with a syringe.
(§7) 48 hours after treatment, necroscopies were performed.
(§8) Scolices and gastro intestinal worm counts were carried out.

[1] = tested on: Gastro-Intestinal Nematodes; assay: Gastro-intestinal nematodes in lambs, worm counts; format: in vivo
Experimental: as §2
To confirm the infestation, faeces were taken from the rectum 48 hours prior to treatment and the number of eggs counted.
as §3, §4, §5, §6, §7, §8

whipworms = assay: Treatment of nematodes in dogs: whipworms; format: in vivo; conditions: 100 mg/kg single dose, tablets containing 0.5 g, 3 dogs, necropsy 4 days after treatment
Description: (§9) The general testing procedure was that of Example 1. […] 100% efficacy against whipworms and 65% efficacy against hookworms were found upon necropsy 4 days after treatment using a single dose treatment.

hookworms = assay: Treatment of nematodes in dogs: hookworms; format: in vivo
Description: as §9

[2] = Toxicity study in cats, single doses; format: in vivo
Description: (§10) Additional toxicity studies have been carried out in cats and dogs, which can be summarized as follows.
The lethal dose of the test material in cats is greater than 10 g/kg.

[3] = Toxicity study in dogs, single doses; format: in vivo
Description: as §10
The lethal dose of the test material in dogs is greater than 10 g/kg.

[4] = Side effects of treatment in Taenia pisiformis-infected dogs; format: in vivo, dogs (beagles); conditions: 75 mg/kg, 15 dogs
Experimental: as §1

[5] = Necropsy observations in treated lambs; format: in vivo; conditions: 48 hours after treatment
Experimental: as §4, §5, §7

[6] = single dose 100 mg/kg, 7 naturally infested lambs

SMILES: CC(=O)Oc1ccccc1C(=O)Nc1ncc([N+](=O)[O-])s1 [PH 5776, 2-(2'-acetoxy)-benzamido-5-nitro-thiazole]
- Effectiveness against Taenia pisiformis (Taenia pisiformis; 75 mg of body weight): effective
- Tapeworm material in faeces after the 14th hour (Taenia pisiformis; 75 mg/kg): not found
- Tapeworms at necropsy (in words) (Taenia pisiformis; 75 mg/kg, 15 dogs, day 19 (Group 1) and day 4 (Group 2)): tapeworms were not found in any of the 15 dogs; also recorded: None of the dogs on study were positive for tapeworms
- Number of dogs showing tapeworm material in the faeces (Taenia pisiformis; Group 1 (7 dogs), 75 mg/kg): 5 dogs
- Tapeworm Material In Faeces (8th-14th Hour) (Taenia pisiformis; Group 1, 75 mg/kg, 6 weeks after infection): yes and no
- Number of dogs showing tapeworm material in the faeces (Taenia pisiformis; Group 2 (8 dogs), 75 mg/kg): 6 dogs
- Tapeworm Material In Faeces (8th-14th Hour) (Taenia pisiformis; Group 2, 75 mg/kg, 8 weeks after infection): yes and no
- Number of dogs showing tapeworm material in the faeces (Taenia pisiformis; Groups 1 and 2, out of 15 dogs, 75 mg/kg): 11 dogs
- Effectiveness of treatment (Dypilidium caninum): 100%
- Efficacy of the single dose treatment (Echinococus granulosus): 100%
- Efficacy against Moniezia spp. (in words) (Moniezia spp.; 50 mg/kg): the efficacy is decreasing
- Number of lambs negative after treatment (Moniezia spp.; 50 mg/kg): 3 lambs
- Number of lambs still infested with the cestoda (Moniezia spp.; Group 2 (red), 50 mg/kg, 48 hours after treatment): 3 lambs
- Activity against Moniezia spp. (Moniezia spp.; [6]): ~100%
- Activity against Moniezia spp. (in words) (Moniezia spp.; [6]): very active
- After Treatment At Necroscopies: Number Of Worms, Large Intestine ([1]; Group 1, 100 mg/kg): 0
- Effect on round worms / gastro-intestinal nematodes (in words) ([1]; lambs, 48 hours after treatment, 50 and 100 mg/kg): no toxic effect on any of the present round worms; also recorded: does not reveal any efficacy; also recorded: no activity
- Efficacy against whipworms (whipworms): 100%
- Efficacy against hookworms (hookworms; 100 mg/kg single dose, tablets containing 0.5 g, 3 dogs, necropsy 4 days after treatment): 65%
- Efficacy against hookworms (hookworms; 3 repeated doses of 100 mg/kg at an interval of 7 days): 93%
- Lethal dose [2]: greater than 10 g/kg
- Necropsy findings [2]: slight yellow discoloration of the renal cortex
- Signs of intoxication (central nervous system) ([2]; doses of 5 and 10 g/kg): a suggestion of central nervous system depression
- Signs of intoxication ([2]; single doses of 1 g/kg): Minimal signs (slight diarrhea) of intoxication
- Route of excretion ([2]; suggested from necropsy findings): urine as a route of excretion
- Lethal dose [3]: greater than 10 g/kg
- Signs of intoxication ([3]; single doses of 1, 5 or 10 g/kg): Minimal signs of intoxication related to gastro-intestinal distress
- Undesirable side effects of the treatment [4]: not found in any of the 15 dogs
- Changes in the internal organs and coloration of the tissues ([5]; 100 or 50 mg/kg): No changes in the internal organs and no coloration of the tissues were observed
- Coloration of small intestine wall tissues ([5]; treated groups (100 or 50 mg/kg)): slightly colored yellow
